row,logP,Compound
1,4.1,Cc1ccc(-c2nc3cc([N+](=O)[O-])ccc3[nH]2)c(C)c1
2,3.48,COc1ccc(Cc2nc3cc([N+](=O)[O-])ccc3[nH]2)cc1
3,3.78,COc1ccc(-c2nc3cc(C)ccc3[nH]2)c(OC)c1
4,2.95,Clc1ccc(-c2nc3ncccc3[nH]2)cc1
5,3.2,Nc1ccc(Cc2nc3cc(Cl)ccc3[nH]2)cc1
6,3.02,Cc1ccc(-c2nc3ncccc3[nH]2)cc1
7,2.52,Fc1ccc(-c2nc3ncccc3[nH]2)cc1
8,3.02,COc1ccccc1-c1nc2ccccc2[nH]1
9,5.38,Clc1ccc2[nH]c(Cc3ccc(Br)cc3)nc2c1
10,5.21,Cc1ccc(Cc2nc3cc(Cl)ccc3[nH]2)cc1
11,3.67,Cc1ccc(-c2nc3ccccc3[nH]2)cc1
12,3.42,CCc1ccc(-c2nc3ncccc3[nH]2)cc1
13,4.82,CC(C)(C)c1ccc(-c2nc3ncccc3[nH]2)cc1
14,5.18,Clc1ccc(Cc2nc3cc(Cl)ccc3[nH]2)cc1
15,3.42,Cc1ccccc1-c1nc2cc([N+](=O)[O-])ccc2[nH]1
